These results are taken from the Kinase Knowledgebase extract (Sharma et al. 2016).

For this assay, the target named is PIK3CD (Human) (UniProt O00329). In words: Enzyme Assay.
Chain of PIK3CD (Human) (O00329 whole entry, looked up): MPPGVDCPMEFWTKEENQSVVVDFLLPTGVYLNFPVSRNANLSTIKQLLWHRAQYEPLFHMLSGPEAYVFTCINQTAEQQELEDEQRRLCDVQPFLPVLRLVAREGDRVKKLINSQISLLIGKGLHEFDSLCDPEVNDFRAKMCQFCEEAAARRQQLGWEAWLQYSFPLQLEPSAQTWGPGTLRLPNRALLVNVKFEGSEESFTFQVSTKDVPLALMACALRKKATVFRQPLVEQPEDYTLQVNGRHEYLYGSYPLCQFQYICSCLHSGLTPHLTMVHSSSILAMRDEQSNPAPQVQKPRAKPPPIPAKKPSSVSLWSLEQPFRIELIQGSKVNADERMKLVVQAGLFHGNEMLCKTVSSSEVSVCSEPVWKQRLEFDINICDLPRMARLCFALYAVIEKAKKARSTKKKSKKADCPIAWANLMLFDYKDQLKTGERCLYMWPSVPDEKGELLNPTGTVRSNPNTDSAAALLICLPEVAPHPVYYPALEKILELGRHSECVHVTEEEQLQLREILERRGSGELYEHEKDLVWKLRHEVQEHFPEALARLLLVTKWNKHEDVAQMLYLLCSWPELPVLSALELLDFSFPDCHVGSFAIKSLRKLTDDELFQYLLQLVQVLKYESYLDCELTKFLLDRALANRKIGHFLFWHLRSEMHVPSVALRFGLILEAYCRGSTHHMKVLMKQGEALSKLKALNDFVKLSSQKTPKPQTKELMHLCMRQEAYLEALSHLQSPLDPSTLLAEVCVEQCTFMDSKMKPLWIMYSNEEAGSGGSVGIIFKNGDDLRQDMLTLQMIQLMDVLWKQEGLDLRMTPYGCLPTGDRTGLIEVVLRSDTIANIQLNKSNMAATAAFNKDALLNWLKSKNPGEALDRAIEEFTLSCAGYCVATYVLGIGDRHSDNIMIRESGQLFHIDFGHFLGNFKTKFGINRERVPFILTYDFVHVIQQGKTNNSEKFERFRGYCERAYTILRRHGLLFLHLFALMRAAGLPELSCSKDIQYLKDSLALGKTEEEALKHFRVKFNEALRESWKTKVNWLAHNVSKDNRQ
A word on the IC50: it is the concentration at which inhibition is half-maximal. Compound `Cc1ccc(F)c2c(=O)n(-c3cc(F)cc(C#N)c3)c([C@H](C)Nc3nc(N)nc(N)c3C#N)nc12` yielded an IC50 of 10 to 50 nM.

`C[C@H](Nc1nc(N)nc(N)c1C#N)c1nc2cccc(Cl)c2c(=O)n1-c1cc(Cl)cc(Cl)c1`: the IC50 lay within 1 to 10 nM. `C[C@H](Nc1nc(N)nc(N)c1C#N)c1nc2ccccc2c(=O)n1-c1cc(F)cc(F)c1` yielded an IC50 of 10 to 50 nM. In turn, `C[C@H](Nc1nc(N)nc(N)c1C#N)c1nc2ccc(F)c(F)c2c(=O)n1-c1cc(F)cc(F)c1` came in with an IC50 of 10 to 50 nM. Then `C[C@H](Nc1nc(N)nc(N)c1C#N)c1nc2cccc(C#N)c2c(=O)n1-c1cc(F)cc(C(F)F)c1`, with 10 to 50 nM; and `C[C@H](Nc1nc(N)nc(N)c1C#N)c1nc2cccc(C(F)F)c2c(=O)n1-c1cc(F)cc(C(F)F)c1`, with 1 to 10 nM. For the compound `C[C@H](Nc1nc(N)nc(N)c1C#N)c1nc2c(Cl)ccc(Cl)c2c(=O)n1-c1ccccc1`, the IC50 is at most 1 nM. Turning to `CC[C@H](Nc1nc(N)nc(N)c1C#N)c1nc2c(F)ccc(F)c2c(=O)n1-c1cccc(C#N)c1`, the IC50 is 10 to 50 nM. The compound `CC[C@H](Nc1nc(N)nc(N)c1C#N)c1nc2cccc(Cl)c2c(=O)n1-c1cc(F)cc(F)c1` had an IC50 of 1 to 10 nM.

The compound `C[C@H](Nc1nc(N)nc(N)c1Cl)c1nc2c(F)ccc(Cl)c2c(=O)n1-c1ccccc1` displayed an IC50 of 1 to 10 nM. `C[C@H](Nc1nc(N)nc(N)c1Cl)c1cc2cccc(Cl)c2c(=O)n1-c1ccccc1` had an IC50 of at most 1 nM. In turn, `C[C@H](Nc1nc(N)nc(N)c1C#N)c1nc2cccc(Cl)c2c(=O)n1-c1cccc(Cl)c1` gave an IC50 of at most 1 nM. Then `Cc1ccc(F)c2c(=O)n(-c3cccc(C#N)c3)c([C@H](C)Nc3nc(N)nc(N)c3C#N)nc12`, with 10 to 50 nM; and `CC[C@H](Nc1nc(N)nc(N)c1C#N)c1nc2c(F)cc(F)cc2c(=O)n1-c1cc(F)cc(F)c1`, with 10 to 50 nM; and `C[C@H](Nc1nc(N)nc(N)c1C#N)c1nc2cccc(F)c2c(=O)n1-c1cc(F)cc(C#N)c1`, with 10 to 50 nM. Compound `C[C@H](Nc1ncnc(N)c1C#N)c1nc2cccc(Cl)c2c(=O)n1-c1cc(F)cc(F)c1` gave an IC50 of 1 to 10 nM. Then `C[C@H](Nc1nc(N)nc(N)c1C#N)c1nc2cccc(C(N)=O)c2c(=O)n1-c1ccccc1`, with 1 to 10 nM; and `COc1cc(OC)cc(-n2c([C@H](C)Nc3nc(N)nc(N)c3C#N)nc3cccc(Cl)c3c2=O)c1`, with 1 to 10 nM.

As for `C[C@H](Nc1nc(N)nc(N)c1C#N)c1nc2cccc(S(C)(=O)=O)c2c(=O)n1-c1cccc(C(F)F)c1`, the IC50 was in the range of 1 to 10 nM. `CC[C@H](Nc1nc(N)nc(N)c1C#N)c1nc2cccc(C)c2c(=O)n1-c1cc(F)cc(F)c1` gave an IC50 of at most 1 nM.

As to `C[C@H](Nc1nc(N)nc(N)c1C(N)=O)c1nc2cccc(Cl)c2c(=O)n1-c1ccccc1`, the IC50 was at most 1 nM. `CC[C@H](Nc1nc(N)nc(N)c1C#N)c1nc2c(C)ccc(F)c2c(=O)n1-c1cc(F)cc(F)c1` came in with an IC50 of 10 to 50 nM.

On to `C[C@H](Nc1nc(N)nc(N)c1C#N)c1nc2cccc(F)c2c(=O)n1-c1cc(F)cc(F)c1`, for which the IC50 was 1 to 10 nM.

Take `Cc1ccc(F)c2nc([C@H](C)Nc3nc(N)nc(N)c3C#N)n(-c3cc(F)cc(C#N)c3)c(=O)c12`: the IC50 lay in the range of 1 to 10 nM. Regarding `COc1cccc2nc([C@H](C)Nc3nc(N)nc(N)c3C#N)n(-c3ccccc3)c(=O)c12`, the IC50 is 10 to 50 nM.

For the compound `C[C@H](Nc1nc(N)nc(N)c1C#N)c1nc2cccc(Cl)c2c(=O)n1-c1cccc(C(F)F)c1`, the IC50 was at most 1 nM.

`CC[C@H](Nc1nc(N)nc(N)c1C#N)c1nc2c(F)ccc(F)c2c(=O)n1-c1cc(F)cc(F)c1` had an IC50 of 10 to 50 nM.

Compound `CCc1cccc2c(=O)n(-c3cc(F)cc(F)c3)c([C@H](C)Nc3nc(N)nc(N)c3C#N)nc12` displayed an IC50 of 10 to 50 nM. As for `CC[C@H](Nc1nc(N)nc(N)c1C#N)c1nc2cccc(F)c2c(=O)n1-c1cccc(F)c1`, the IC50 was 1 to 10 nM. Compound `C[C@H](Nc1nc(N)nc(N)c1C#N)c1nc2c(F)cccc2c(=O)n1-c1ccccc1` gave an IC50 of 1 to 10 nM. The compound `C[C@H](Nc1nc(N)nc(N)c1C#N)c1nc2cccc(S(C)(=O)=O)c2c(=O)n1-c1cccc(F)c1` came in with an IC50 of 1 to 10 nM. Compound `CC(C)c1cccc(-n2c([C@H](C)Nc3nc(N)nc(N)c3C#N)nc3cccc(Cl)c3c2=O)c1` showed an IC50 of 1 to 10 nM.

Compound `C[C@H](Nc1nc(N)nc(N)c1C#N)c1nc2cccc(Cl)c2c(=O)n1-c1cc(F)cc(OC(F)(F)F)c1` had an IC50 of 1 to 10 nM. In the case of `CC[C@H](Nc1nc(N)nc(N)c1C#N)c1nc2cccc(F)c2c(=O)n1-c1cccc(C(F)(F)F)c1` it was 10 to 50 nM; in that of `C[C@H](Nc1nc(N)nc(N)c1C#N)c1nc2cccc(C#N)c2c(=O)n1-c1cccc(F)c1`, 1 to 10 nM.

Regarding `C[C@H](Nc1nc(N)nc(N)c1C#N)c1nc2c(Cl)ccc(F)c2c(=O)n1-c1cc(F)cc(F)c1`, the IC50 was in the range of 1 to 10 nM. Take `C[C@H](Nc1nc(N)nc(N)c1C#N)c1nc2cccc(Cl)c2c(=O)n1-c1c(F)cccc1F`: the IC50 is 1 to 10 nM. `C[C@H](Nc1nc(N)nc(N)c1C#N)c1nc2cccc(Br)c2c(=O)n1-c1cccc(F)c1` yielded an IC50 of at most 1 nM. Regarding `Cc1ccc(Cl)c2c(=O)n(-c3cc(F)cc(F)c3)c([C@H](C)Nc3nc(N)nc(N)c3C#N)nc12`, the IC50 was 1 to 10 nM. In the case of `Cc1ccc(F)c2nc([C@H](C)Nc3nc(N)nc(N)c3C#N)n(-c3cc(F)cc(F)c3)c(=O)c12` it was at most 1 nM. As for `Cc1cccc2nc([C@H](C)Nc3nc(N)nc(N)c3C#N)n(-c3ccccc3)c(=O)c12`, the IC50 was at most 1 nM. In the case of `C[C@H](Nc1nc(N)nc(N)c1C#N)c1nc2c(C#N)cc(F)cc2c(=O)n1-c1ccccc1`, the IC50 is 1 to 10 nM. For `C[C@H](Nc1nc(N)nc(N)c1C#N)c1nc2cccc(Cl)c2c(=O)n1-c1cccc(C#N)c1`, the IC50 lay within 1 to 10 nM. For `C[C@H](Nc1nc(N)nc(N)c1C#N)c1nc2cccc(S(C)(=O)=O)c2c(=O)n1-c1ccccc1`, the IC50 fell in the range of 1 to 10 nM. `Cc1cccc2c(=O)n(-c3cccc(C(F)(F)F)c3)c([C@H](C)Nc3nc(N)nc(N)c3C#N)nc12`: the IC50 was 10 to 50 nM. The compound `C[C@H](Nc1nc(N)nc(N)c1C#N)c1nc2cccc(F)c2c(=O)n1-c1cc(Cl)cc(Cl)c1` yielded an IC50 of 10 to 50 nM.

For the compound `C[C@H](Nc1nc(N)nc(N)c1C#N)c1nc2c(F)ccc(F)c2c(=O)n1-c1ccccc1`, the IC50 was at most 1 nM.

Turning to `CC(C)C[C@H](Nc1nc(N)nc(N)c1C#N)c1nc2cccc(Cl)c2c(=O)n1-c1cccc(C#N)c1`, the IC50 lay within 10 to 50 nM. With `CC[C@H](Nc1nc(N)nc(N)c1C#N)c1nc2ccc(F)cc2c(=O)n1-c1cccc(F)c1`, the concentration for half-maximal inhibition (IC50) is 1 to 10 nM. As for `C[C@H](Nc1nc(N)nc(N)c1C#N)c1nc2c(C(F)F)cccc2c(=O)n1-c1cc(F)cc(F)c1`, the IC50 is 10 to 50 nM.

Compound `Cc1ccc(F)c2c(=O)n(-c3cc(F)cc(F)c3)c([C@H](C)Nc3nc(N)nc(N)c3C#N)nc12` returned an IC50 of 1 to 10 nM.

`C[C@H](Nc1nc(N)nc(N)c1Cl)c1nc2cccc(S(C)(=O)=O)c2c(=O)n1-c1cccc(F)c1` displayed an IC50 of 1 to 10 nM. On to `C[C@H](Nc1nc(N)nc(N)c1C#N)c1nc2cccc(F)c2c(=O)n1-c1cccc(C#N)c1`, for which the IC50 is 10 to 50 nM. In turn, `C[C@H](Nc1nc(N)nc(N)c1C#N)c1nc2ccc(F)c(Cl)c2c(=O)n1-c1cc(F)cc(F)c1` showed an IC50 of 1 to 10 nM.

Compound `C[C@H](Nc1nc(N)nc(N)c1C#N)c1nc2c(F)ccc(F)c2c(=O)n1-c1cc(F)cc(F)c1` came in with an IC50 of 1 to 10 nM.

In turn, `CC(C)C[C@H](Nc1nc(N)nc(N)c1C#N)c1nc2cccc(Cl)c2c(=O)n1-c1cccc(F)c1` showed an IC50 of 1 to 10 nM.

With `CC[C@H](Nc1nc(N)nc(N)c1C#N)c1nc2c(F)ccc(F)c2c(=O)n1-c1ccccc1`, the IC50 is 1 to 10 nM.

Compound `CC[C@H](Nc1nc(N)nc(N)c1C#N)c1nc2c(Cl)ccc(F)c2c(=O)n1-c1cc(F)cc(F)c1` had an IC50 of 10 to 50 nM. Turning to `C[C@H](Nc1nc(N)nc(N)c1C#N)c1nc2c(C#N)cccc2c(=O)n1-c1cccc(C(F)F)c1`, the IC50 lay within 1 to 10 nM. Then `COc1cc(-n2c([C@H](C)Nc3nc(N)nc(N)c3C#N)nc3cccc(Cl)c3c2=O)ccc1F`, with 1 to 10 nM; and `C[C@H](Nc1nc(N)nc(N)c1C#N)c1nc2cccc(S(C)(=O)=O)c2c(=O)n1-c1cc(F)cc(C(F)F)c1`, with 10 to 50 nM.

Compound `COc1cc(F)cc(-n2c([C@H](C)Nc3nc(N)nc(N)c3C#N)nc3cccc(Cl)c3c2=O)c1` yielded an IC50 of 1 to 10 nM. In the case of `C[C@H](Nc1nc(N)nc(N)c1C#N)c1nc2cccc(F)c2c(=O)n1-c1cc(F)cc(Cl)c1` it was 10 to 50 nM. `C[C@H](Nc1nc(N)nc(N)c1C#N)c1nc2cccc(C(F)F)c2c(=O)n1-c1cccc(C#N)c1` came in with an IC50 of 1 to 10 nM. On to `C[C@H](Nc1nc(N)nc(N)c1C#N)c1nc2ccc(F)c(Cl)c2c(=O)n1-c1cc(F)cc(C(F)F)c1`, for which the IC50 was 10 to 50 nM. As for `CC[C@H](C)[C@H](Nc1nc(N)nc(N)c1C#N)c1nc2cccc(Cl)c2c(=O)n1-c1cc(F)cc(F)c1`, the IC50 was 1 to 10 nM. `COc1cc(-n2c([C@H](C)Nc3nc(N)nc(N)c3C#N)nc3cccc(Cl)c3c2=O)ccc1C` came in with an IC50 of 10 to 50 nM. As for `C[C@H](Nc1nc(N)nc(N)c1C#N)c1nc2cccc(Cl)c2c(=O)n1-c1cccc(CC(F)F)c1`, the IC50 fell in the range of 1 to 10 nM. The compound `C[C@H](Nc1nc(N)nc(N)c1C#N)c1nc2c(Cl)cccc2c(=O)n1-c1ccccc1` came in with an IC50 of 1 to 10 nM. In turn, `C[C@H](Nc1nc(N)nc(N)c1C#N)c1nc2cccc(C(F)F)c2c(=O)n1-c1ccccc1` gave an IC50 of at most 1 nM. With `C[C@H](Nc1nc(N)nc(N)c1C#N)c1nc2ccc(F)cc2c(=O)n1-c1cccc(Cl)c1`, the IC50 was in the range of 1 to 10 nM. Regarding `C[C@H](Nc1nc(N)nc(N)c1C#N)c1nc2cccc(F)c2c(=O)n1-c1cccc(CC(F)F)c1`, the IC50 lay in the range of 1 to 10 nM. Regarding `CC[C@H](Nc1nc(N)nc(N)c1C#N)c1nc2c(F)cccc2c(=O)n1-c1cc(F)cc(F)c1`, the IC50 is 1 to 10 nM. For the compound `CC[C@H](Nc1nc(N)nc(N)c1C#N)c1nc2cccc(Cl)c2c(=O)n1-c1cc(F)cc(C(F)F)c1`, the IC50 is 1 to 10 nM.

For `C[C@H](Nc1nc(N)nc(N)c1C#N)c1nc2cccc(F)c2c(=O)n1-c1ccccc1`, the IC50 lay within 1 to 10 nM.

`CC[C@H](Nc1nc(N)nc(N)c1C#N)c1nc2ccc(F)cc2c(=O)n1-c1cc(F)cc(F)c1` showed an IC50 of 10 to 50 nM. The compound `C[C@H](Nc1nc(N)nc(N)c1C#N)c1nc2c(F)cccc2c(=O)n1-c1cc(F)cc(F)c1` yielded an IC50 of 1 to 10 nM.
